Test results as given in patent US20250144067A1, “PERSONALIZED STARVATION THERAPY FOR CANCER” (Faeth Therapeutics, Inc., priority 2021, published 2025).
Where a name gives a salt, the structure may show the parent alone.

System: NCI-H292 lung cancer cells
Experiment: FDA drug screening, complete media vs cholesterol-free media without statin (TABLE 1)
Type: cell-based, human
Details: Complete minus Cholesterol-free; greater than 0 enhanced anti-cancer activity, about 0 neutral, below 0 antagonist

SMILES | Difference
CC(Oc1c(Cl)cccc1Cl)C1=NCCN1 (stereo not drawn) [Lofexidine] | −0.14
COc1ccc(CN2CCN(C(c3ccc(F)cc3)c3ccc(F)cc3)CC2)c(OC)c1OC [Lomerizine dihydrochloride] | −0.12
CC[C@H](C)C(=O)O[C@H]1C[C@@H](C)C=C2C=C[C@H](C)[C@H](CC[C@@H]3C[C@@H](O)CC(=O)O3)[C@H]21 [Lovastatin] | −0.11

Same assay, conditions: Complete minus Cholesterol-free; greater than 0 enhanced anti-cancer activity, about 0 neutral, below 0 antagonists

SMILES | Difference
CC(Oc1c(Cl)cccc1Cl)C1=NCCN1 (stereo not drawn) [Lofexidine (hydrochloride)] | −0.50
CC(C(=O)O)c1ccc(CC2CCCC2=O)cc1 (stereo not drawn) [Loxoprofen] | −0.88
N#C/C(=C1/SC[C@@H](c2ccc(Cl)cc2Cl)S1)n1ccnc1 [Luliconazole] | −0.58

Same assay, conditions: NCI-H292 cells in cholesterol-free media without statin

SMILES | Cholesterol-free
CC(Oc1c(Cl)cccc1Cl)C1=NCCN1 (stereo not drawn) [Lofexidine (hydrochloride)] | 1.453
CC(C(=O)O)c1ccc(CC2CCCC2=O)cc1 (stereo not drawn) [Loxoprofen] | 1.914
N#C/C(=C1/SC[C@@H](c2ccc(Cl)cc2Cl)S1)n1ccnc1 [Luliconazole] | 1.532

Same assay, conditions: NCI-H292 cells in complete media

SMILES | Complete
CC(Oc1c(Cl)cccc1Cl)C1=NCCN1 (stereo not drawn) [Lofexidine (hydrochloride)] | 0.95
CC(C(=O)O)c1ccc(CC2CCCC2=O)cc1 (stereo not drawn) [Loxoprofen] | 1.039
N#C/C(=C1/SC[C@@H](c2ccc(Cl)cc2Cl)S1)n1ccnc1 [Luliconazole] | 0.9562

Same assay, conditions: NCI-H292 cells, FDA drug library screen, cholesterol-free media without statin

SMILES | Cholesterol-free
CC(Oc1c(Cl)cccc1Cl)C1=NCCN1 (stereo not drawn) [Lofexidine] | 0.8805
COc1ccc(CN2CCN(C(c3ccc(F)cc3)c3ccc(F)cc3)CC2)c(OC)c1OC [Lomerizine dihydrochloride] | 1.023
CC[C@H](C)C(=O)O[C@H]1C[C@@H](C)C=C2C=C[C@H](C)[C@H](CC[C@@H]3C[C@@H](O)CC(=O)O3)[C@H]21 [Lovastatin] | 0.7089

Same assay, conditions: NCI-H292 cells, FDA drug library screen, complete media

SMILES | Complete
CC(Oc1c(Cl)cccc1Cl)C1=NCCN1 (stereo not drawn) [Lofexidine] | 0.7367
COc1ccc(CN2CCN(C(c3ccc(F)cc3)c3ccc(F)cc3)CC2)c(OC)c1OC [Lomerizine dihydrochloride] | 0.8999
CC[C@H](C)C(=O)O[C@H]1C[C@@H](C)C=C2C=C[C@H](C)[C@H](CC[C@@H]3C[C@@H](O)CC(=O)O3)[C@H]21 [Lovastatin] | 0.603

Same assay, conditions: NCI-H292 cells, cholesterol-free media without statin

SMILES | Cholesterol-free
CCn1cc(C(=O)O)c(=O)c2cc(F)c(N3CCNC(C)C3)c(F)c21 (stereo not drawn) [Lomefloxacin (hydrochloride)] | 1.531
Cc1cccc(C)c1OCC(=O)N[C@@H](Cc1ccccc1)[C@@H](O)C[C@H](Cc1ccccc1)NC(=O)[C@H](C(C)C)N1CCCNC1=O [Lopinavir] | 1.281
C[C@H]1Oc2cc(cnc2N)-c2c(nn(C)c2C#N)CN(C)C(=O)c2ccc(F)cc21 [Lorlatinib] | 1.143
CN1C(C(=O)Nc2ccccn2)=C(O)c2sc(Cl)cc2S1(=O)=O [Lornoxicam] | 1.174

Same assay, conditions: NCI-H292 cells, cholesterol-free media without statin, FDA drug library screen

SMILES | Cholesterol-free
CCOC(=O)O[C@]1(C(=O)OCCl)CC[C@H]2[C@@H]3CCC4=CC(=O)C=C[C@]4(C)[C@H]3[C@@H](O)C[C@@]21C [Loteprednol Etabonate] | 0.5384
CCCCN(CCCC)CC(O)c1cc(Cl)cc2c1-c1ccc(Cl)cc1/C2=C/c1ccc(Cl)cc1 (stereo not drawn) [Lumefantrine] | 0.9552

Same assay, conditions: NCI-H292 cells, complete media

SMILES | Complete
Cc1cccc(C)c1OCC(=O)N[C@@H](Cc1ccccc1)[C@@H](O)C[C@H](Cc1ccccc1)NC(=O)[C@H](C(C)C)N1CCCNC1=O [Lopinavir] | 0.8723
C[C@H]1Oc2cc(cnc2N)-c2c(nn(C)c2C#N)CN(C)C(=O)c2ccc(F)cc21 [Lorlatinib] | 0.8052
CN1C(C(=O)Nc2ccccn2)=C(O)c2sc(Cl)cc2S1(=O)=O [Lornoxicam] | 0.811

Same assay, conditions: NCI-H292 cells, complete media, FDA drug library screen

SMILES | Complete
CCOC(=O)O[C@]1(C(=O)OCCl)CC[C@H]2[C@@H]3CCC4=CC(=O)C=C[C@]4(C)[C@H]3[C@@H](O)C[C@@]21C [Loteprednol Etabonate] | 0.8969

Same assay, conditions: complete vs cholesterol-free media; >0 enhanced anti-cancer activity, about 0 neutral, <0 antagonist

SMILES | Difference
CCOC(=O)O[C@]1(C(=O)OCCl)CC[C@H]2[C@@H]3CCC4=CC(=O)C=C[C@]4(C)[C@H]3[C@@H](O)C[C@@]21C [Loteprednol Etabonate] | 0.36
CCCCN(CCCC)CC(O)c1cc(Cl)cc2c1-c1ccc(Cl)cc1/C2=C/c1ccc(Cl)cc1 (stereo not drawn) [Lumefantrine] | 0.22

Same assay, conditions: complete vs cholesterol-free media; greater than 0 enhanced anti-cancer activity, about 0 neutral, below 0 antagonists

SMILES | Difference
CCn1cc(C(=O)O)c(=O)c2cc(F)c(N3CCNC(C)C3)c(F)c21 (stereo not drawn) [Lomefloxacin (hydrochloride)] | −0.37
Cc1cccc(C)c1OCC(=O)N[C@@H](Cc1ccccc1)[C@@H](O)C[C@H](Cc1ccccc1)NC(=O)[C@H](C(C)C)N1CCCNC1=O [Lopinavir] | −0.41
C[C@H]1Oc2cc(cnc2N)-c2c(nn(C)c2C#N)CN(C)C(=O)c2ccc(F)cc21 [Lorlatinib] | −0.34
CN1C(C(=O)Nc2ccccn2)=C(O)c2sc(Cl)cc2S1(=O)=O [Lornoxicam] | −0.36

System: NCI-H292 lung cancer cells
Experiment: FDA drug screening, complete media vs cholesterol-free media with simvastatin (TABLE 2)
Type: cell-based, human
Details: NCI-H292 cells, FDA drug library screen, cholesterol-free media with simvastatin 0.04 μM

SMILES | Cholesterol-free media + simvastatin (0.04 μM)
Cc1cccc(C)c1OCC(=O)N[C@@H](Cc1ccccc1)[C@@H](O)C[C@H](Cc1ccccc1)NC(=O)[C@H](C(C)C)N1CCCNC1=O [Lopinavir] | 1.549
C[C@H]1Oc2cc(cnc2N)-c2c(nn(C)c2C#N)CN(C)C(=O)c2ccc(F)cc21 [Lorlatinib] | 0.9476
CN1C(C(=O)Nc2ccccn2)=C(O)c2sc(Cl)cc2S1(=O)=O [Lornoxicam] | 1.072
CCOC(=O)O[C@]1(C(=O)OCCl)CC[C@H]2[C@@H]3CCC4=CC(=O)C=C[C@]4(C)[C@H]3[C@@H](O)C[C@@]21C [Loteprednol Etabonate] | 0.9128
CC[C@H](C)C(=O)O[C@H]1C[C@@H](C)C=C2C=C[C@H](C)[C@H](CC[C@@H]3C[C@@H](O)CC(=O)O3)[C@H]21 [Lovastatin] | 0.5184
N#C/C(=C1/SC[C@@H](c2ccc(Cl)cc2Cl)S1)n1ccnc1 [Luliconazole] | 0.3531

Same assay, conditions: NCI-H292 cells, FDA drug library screen, complete media

SMILES | Complete Media
Cc1cccc(C)c1OCC(=O)N[C@@H](Cc1ccccc1)[C@@H](O)C[C@H](Cc1ccccc1)NC(=O)[C@H](C(C)C)N1CCCNC1=O [Lopinavir] | 1.393
CN1C(C(=O)Nc2ccccn2)=C(O)c2sc(Cl)cc2S1(=O)=O [Lornoxicam] | 0.9888
CCOC(=O)O[C@]1(C(=O)OCCl)CC[C@H]2[C@@H]3CCC4=CC(=O)C=C[C@]4(C)[C@H]3[C@@H](O)C[C@@]21C [Loteprednol Etabonate] | 1.184
CC[C@H](C)C(=O)O[C@H]1C[C@@H](C)C=C2C=C[C@H](C)[C@H](CC[C@@H]3C[C@@H](O)CC(=O)O3)[C@H]21 [Lovastatin] | 0.7992
N#C/C(=C1/SC[C@@H](c2ccc(Cl)cc2Cl)S1)n1ccnc1 [Luliconazole] | 0.8464

Same assay, conditions: NCI-H292 cells, FDA library drug in cholesterol-free media with simvastatin 0.04 μM

SMILES | Cholesterol-free media + simvastatin (0.04 μM)
CC(Oc1c(Cl)cccc1Cl)C1=NCCN1 (stereo not drawn) [Lofexidine] | 1.108
CCn1cc(C(=O)O)c(=O)c2cc(F)c(N3CCNC(C)C3)c(F)c21 (stereo not drawn) [Lomefloxacin (hydrochloride)] | 1.657
COc1ccc(CN2CCN(C(c3ccc(F)cc3)c3ccc(F)cc3)CC2)c(OC)c1OC [Lomerizine dihydrochloride] | 1.178

Same assay, conditions: NCI-H292 cells, FDA library drug in complete media

SMILES | Complete Media
CC(Oc1c(Cl)cccc1Cl)C1=NCCN1 (stereo not drawn) [Lofexidine] | 0.8401
CCn1cc(C(=O)O)c(=O)c2cc(F)c(N3CCNC(C)C3)c(F)c21 (stereo not drawn) [Lomefloxacin (hydrochloride)] | 0.934
COc1ccc(CN2CCN(C(c3ccc(F)cc3)c3ccc(F)cc3)CC2)c(OC)c1OC [Lomerizine dihydrochloride] | 0.8678

Same assay, conditions: NCI-H292 cells, cholesterol-free media with simvastatin 0.04 μM; cell growth value in FDA drug screen

SMILES | Cholesterol-free media + simvastatin (0.04 μM)
CC(Oc1c(Cl)cccc1Cl)C1=NCCN1 (stereo not drawn) [Lofexidine (hydrochloride)] | 1.271
CC(C(=O)O)c1ccc(CC2CCCC2=O)cc1 (stereo not drawn) [Loxoprofen] | 0.9936
CCCCN(CCCC)CC(O)c1cc(Cl)cc2c1-c1ccc(Cl)cc1/C2=C/c1ccc(Cl)cc1 (stereo not drawn) [Lumefantrine] | 0.8537

Same assay, conditions: NCI-H292 cells, complete media; cell growth value in FDA drug screen

SMILES | Complete Media
CC(Oc1c(Cl)cccc1Cl)C1=NCCN1 (stereo not drawn) [Lofexidine (hydrochloride)] | 1.376
CC(C(=O)O)c1ccc(CC2CCCC2=O)cc1 (stereo not drawn) [Loxoprofen] | 1.115
CCCCN(CCCC)CC(O)c1cc(Cl)cc2c1-c1ccc(Cl)cc1/C2=C/c1ccc(Cl)cc1 (stereo not drawn) [Lumefantrine] | 0.9184

Same assay, conditions: complete media minus cholesterol-free media + simvastatin; >0 enhanced anti-cancer activity, about 0 neutral, <0 antagonist

SMILES | Difference
CC(Oc1c(Cl)cccc1Cl)C1=NCCN1 (stereo not drawn) [Lofexidine (hydrochloride)] | 0.10
C[C@H]1Oc2cc(cnc2N)-c2c(nn(C)c2C#N)CN(C)C(=O)c2ccc(F)cc21 [Lorlatinib] | 0.20
CCOC(=O)O[C@]1(C(=O)OCCl)CC[C@H]2[C@@H]3CCC4=CC(=O)C=C[C@]4(C)[C@H]3[C@@H](O)C[C@@]21C [Loteprednol Etabonate] | 0.27
CC[C@H](C)C(=O)O[C@H]1C[C@@H](C)C=C2C=C[C@H](C)[C@H](CC[C@@H]3C[C@@H](O)CC(=O)O3)[C@H]21 [Lovastatin] | 0.28
CC(C(=O)O)c1ccc(CC2CCCC2=O)cc1 (stereo not drawn) [Loxoprofen] | 0.12
N#C/C(=C1/SC[C@@H](c2ccc(Cl)cc2Cl)S1)n1ccnc1 [Luliconazole] | 0.49
CCCCN(CCCC)CC(O)c1cc(Cl)cc2c1-c1ccc(Cl)cc1/C2=C/c1ccc(Cl)cc1 (stereo not drawn) [Lumefantrine] | 0.06

Same assay, conditions: complete media vs cholesterol-free media + simvastatin (0.04 μM); >0 enhanced anti-cancer activity, about 0 neutral, <0 antagonist

SMILES | Difference
CC(Oc1c(Cl)cccc1Cl)C1=NCCN1 (stereo not drawn) [Lofexidine] | −0.27
CCn1cc(C(=O)O)c(=O)c2cc(F)c(N3CCNC(C)C3)c(F)c21 (stereo not drawn) [Lomefloxacin (hydrochloride)] | −0.72
COc1ccc(CN2CCN(C(c3ccc(F)cc3)c3ccc(F)cc3)CC2)c(OC)c1OC [Lomerizine dihydrochloride] | −0.31
Cc1cccc(C)c1OCC(=O)N[C@@H](Cc1ccccc1)[C@@H](O)C[C@H](Cc1ccccc1)NC(=O)[C@H](C(C)C)N1CCCNC1=O [Lopinavir] | −0.16
CN1C(C(=O)Nc2ccccn2)=C(O)c2sc(Cl)cc2S1(=O)=O [Lornoxicam] | −0.08
